Data set [1] has as its system T cell receptor zeta chain / MZF3E in Jurkat cells. The data set is described as follows: Recruitment of kinase activity to zeta-chain (in vitro kinase assay after immunoprecipitation) and tyrosine phosphorylation. Format: cell-based, human. The note with it: Jurkat cells stably transfected with MZF3E. The text has this: FK1012-induced protein-tyrosine phosphorylation. The intracellular domains of the TCR, CD3 and zeta-chains interact with cytoplasmic protein tyrosine kinases following antigen stimulation. Specific members of the Src family (lck and/or fyn) phosphorylate one or more tyrosine residues of activation motifs within these intracellular domains (tyrosine activation motif, TAM). The tyrosine kinase ZAP-70 is recruited (via its two SH2 domains) to the tyrosine phosphorylated T-cell-receptor, activated, and is likely to be involved in the further downstream activation of phospholipase C. […] Tyrosine phosphorylation after treatment of cells with either anti-CD3 MAb or FK1012 was detected using monoclonal alpha-phosphotyrosine antibodies. Whole cell lysates were analysed at varying times after stimulation. […] The pattern consisted of a major band of 70 kDa, probably ZAP-70, and minor bands of 120 kDa, 62 kDa, 55 kDa and 42 kDa.

Data set [2] relates to MZF3E chimera in Jurkat T cells. The data set is described as follows: Co-immunoprecipitation of MZF3Eflu with MZF3Eflag (induced dimerization). Format: cell-based, human. Particulars: 1 μM.
Data set [3] relates to MZF1Eflu and MZF1Eflag. In words: Co-immunoprecipitation of FKBP monomer constructs MZF1E. Format: cell-based, human.
Data set [4] has as its system chimeric FKBP12/CD3 (1FK3) receptor. The data set is described as follows: NFAT-SEAP reporter through chimeric FKBP12/CD3 (1FK3) receptor. Format: cell-based, human. The note with it: 2 ng/ml FK506; FK1012A-stimulated. As to the method: 5 μg of the eukaryotic expression vector, pBJ5, (based on pCDL-SR with a polylinker inserted between the 16S splice site and the poly A site), containing the chimeric receptor (1FK3), was co-transfected with 4 μg of the NFAT-inducible secreted alkaline phosphatase reporter plasmid, NFAT-SX. As a control, 5 μg of pBJ5 was used, instead of 1FK3/pBJ5, in a parallel transfection. After 24 hours, aliquots of each transfection containing approximately 10^5 cells were incubated with log dilutions of the drug, FK1012A, as indicated. As a positive control and to control for transfection efficiency, ionomycin (1 μm) and PMA (25 ng/ml) were added to aliquots from each transfection. After an additional 14 hour incubation, the supernatants were assayed for alkaline phosphatase activity and these activities were expressed relative to that of the positive control samples.

The test system of data set [5] is myristoylated chimeric CD3/FKBP12 (MZF3E) receptor. The data set is described as follows: NFAT-SEAP reporter through myristoylated chimeric CD3/FKBP12 (MZF3E) receptor. Format: cell-based, human. The source says: In an illustrative case, this was accomplished by creating an intracellular receptor comprised of a small fragment of Src sufficient for posttranslational myristoylation (M), the cytoplasmic tail of zeta (Z; a component of the […] was also used), three consecutive FKBP12s (F3) and a flu epitope tag (E). Upon expressing the construct MZF3E (FIG. 18) in human (Jurkat) T cells, we confirmed that the encoded chimeric protein underwent FK1012-mediated oligomerization. The attendant aggregation of the zeta chains led to signaling via the endogenous TCR-signaling pathway (FIG. 15), as evidenced by secretion of alkaline phosphatase (SEAP) in response to an FK1012 (EC50 =50 nM). The promoter of the SEAP reporter gene was constructed to be transcriptionally activated by nuclear factor of activated T cells (NFAT), which is assembled in the nucleus following TCR-signaling.
Specifically, 5 μg of the eukaryotic expression vector, pBJ5, containing a myristoylated chimeric receptor was co-transfected with 4 μg NFAT-SX. MZE, MZF1E, MZF2E and MZF3E contain 0,1, 2, or 3 copies of FKBP12, respectively, downstream of a myristoylated CD3 cytoplasmic domain (see FIG. 2). As a control, 5 μg of pBJ5 was used in a parallel transfection. After 24 hours, aliquots of each transfection containing approximately 10^5 cells were incubated with log dilutions of the drug, FK1012B, as indicated. As a positive control and to control for transfection efficiency, ionomycin (1 μm) and PMA (25 ng/ml) were added to aliquots from each transfection. After an additional 12 hour incubation, the supernatants were assayed for alkaline phosphatase activity and these activities were expressed relative to that of the positive control samples. […] Compare FIGS. 7 and 8.

Data set [6] concerns TAC/TAC/Z (TTZ) chimeric receptor; IL-2 enhancer/NFAT reporter in TAg Jurkat cells. In words: SEAP reporter induction through chimeric receptor TAC/TAC/Z (TTZ). Format: cell-based, human. Particulars: 1 ng/ml FK506. How it is done:
As a positive control and to control for transfection efficiency, ionomycin (1 μm) and PMA (25 ng/ml) were added to aliquots from each transfection.

For data set [7], the system named is calcineurin. Particulars: complex with cyclophilin or FKBP12; cited from earlier work.
In data set [8] the test system is cell culture. The data set is described as follows: Toxicity in cell culture. Format: cell-based.
The test system of data set [9] is calcineurin-mediated TCR signaling. The data set is described as follows: Inhibition of calcineurin-mediated TCR signaling / immunosuppression. Format: cell-based. Particulars: listed as FK1012s.
The subject of data set [10] is FKBP12-Fas antigen chimera in D10 T cells. The data set is described as follows: Apoptosis through FKBP12-Fas chimera in D10 T cells. Format: cell-based. The note with it: murine D10 T cells. The text has this: A chimeric cDNA has been constructed consisting of three FKBP12 domains fused to the cytoplasmic signaling domain of the Fas antigen (FIG. 20). […] Since the stable transfectants represent a homogeneous population of cells, they have been used to ascertain that death is due to apoptosis rather than necrosis (membrane blebbing, nucleosomal DNA fragmentation). However, the transient transfection protocol requires much less work and has therefore been used as an initial assay system, as described below.

Data set [11] relates to ΔMFF3E. The data set is described as follows: Apoptosis with non-myristoylated construct ΔMFF3E. Particulars: ΔMFF3E vs. myristoylated construct. It counts as cell-based.
The target of data set [12] is FKBP12 (Homo sapiens, UniProt P62942). The data set is described as follows: Binding of FK1012s, stoichiometry and Kd. The note with it: 2:1 binding stoichiometry.
FKBP12, sequence (P62942 whole entry, the tested form may be a part): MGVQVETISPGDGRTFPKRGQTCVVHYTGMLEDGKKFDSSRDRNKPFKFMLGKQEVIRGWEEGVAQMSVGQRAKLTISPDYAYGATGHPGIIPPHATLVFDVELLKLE
For data set [13], the system named is Fas-FKBP12 fusion protein (MFF3E) in Jurkat T cells. The data set is described as follows: Cell death/apoptosis through Fas-FKBP12 fusion MFF3E in Jurkat T cells. It counts as cell-based. The note with it: human Jurkat T cells. The text has this: FIG. 21B depicts Immunphilin-Fas antigen chirneras and results of transient expression experiments in Jurkat T cells stably transformed with large T-antigen. Myr: the myristylation sequence taken from pp60^c-src encoding residues 1-14 (Wilson et al, Mol & Cell Biol 9 4 (1989): 1536-44); FKBP: human FKBP12; CypC: murine cyclophilin C sequence encoding residues 36-212 (Freidman et al, Cell 66 4 (1991): 799-806); Fas: intracellular domain of human Fas antigen encoding residues 179-319 (Oehm et al, J Biol Chem 267 15 (1992): 10709-15). Cells were electroporated with a plasmid encoding a secreted alkaline phosphatase reporter gene under the control of 3 tandem API promoters along with a six fold molar excess of the immunophilin fusion construct. After 24 h the cells were stimulated with PMA (50 ng/mL), which stimulates the synthesis of the reporter gene, and (CsA)2. At 48 h the cells were assayed for reporter gene activity. Western blots were performed at 24 h using anti-HA epitope antibodies.
A chimeric cDNA has been constructed consisting of three FKBP12 domains fused to the cytoplasmic signaling domain of the Fas antigen (FIG. 20). […] Since the stable transfectants represent a homogeneous population of cells, they have been used to ascertain that death is due to apoptosis rather than necrosis (membrane blebbing, nucleosomal DNA fragmentation). […]

Entries after “also recorded” stand apart in the source; their conditions may differ. Where two headings read alike, the source gives them in different places.

Consider `CO[C@H]1C[C@@H](C)C/C(C)=C/[C@@H](CCOC(=O)NCc2ccc(CNC(=O)OCC[C@@H]3/C=C(\C)C[C@H](C)C[C@H](OC)[C@H]4O[C@@](O)(C(=O)C(=O)N5CCCC[C@H]5C(=O)O[C@H](/C(C)=C/[C@@H]5CC[C@@H](O)[C@H](OC)C5)[C@H](C)[C@@H](O)CC3=O)[C@H](C)C[C@@H]4OC)cc2)C(=O)C[C@H](O)[C@@H](C)[C@@H](/C(C)=C/[C@@H]2CC[C@@H](O)[C@H](OC)C2)OC(=O)[C@@H]2CCCCN2C(=O)C(=O)[C@]2(O)O[C@H]1[C@@H](OC)C[C@H]2C` [FK1012A], for which the “recruitment of kinase activity to the zeta-chain” value in data set [1] is “recruitment of kinase activity to the zeta-chain”. Moreover, in data set [2], the “coimmunoprecipitation of MZF3Eflu with MZF3Eflag” value was “interacts with MZF3Eflu and is coimmunoprecipitated with MZF3Eflag”. Moreover, in data set [3], the “dimerization of FKBP monomer constructs” value is “also dimerized”.
Regarding `C=CC[C@@H]1/C=C(\C)C[C@H](C)C[C@H](OC)[C@H]2O[C@@](O)(C(=O)C(=O)N3CCCC[C@H]3C(=O)O[C@H](/C(C)=C/[C@@H]3CC[C@@H](O)[C@H](OC)C3)[C@H](C)[C@@H](O)CC1=O)[C@H](C)C[C@@H]2OC` [FK506], the “stimulation of NFAT reporter on addition of FK506” value in data set [4] was “dropped all stimulations to background levels”; in data set [5] (1 ng/ml FK506, FK1012B-stimulated), “dropped all stimulations to near background levels”. For the same compound, in data set [6], the “response of NFAT reporter on addition of FK506” value is recorded as “dropped all activity due to NFAT to background levels”. Further, in [7], the “binding to / inactivation of calcineurin as immunophilin complex” value is on record as “binds with high affinity to calcineurin”.
On to `CO[C@H]1C[C@@H](C)C/C(C)=C/[C@@H](CCOC(=O)NCc2ccccc2)C(=O)C[C@H](O)[C@@H](C)[C@@H](/C(C)=C/[C@@H]2CC[C@@H](O)[C@H](OC)C2)OC(=O)[C@@H]2CCCCN2C(=O)C(=O)[C@]2(O)O[C@H]1[C@@H](OC)C[C@H]2C` [FK506-M], for which, in [5] (monomeric ligand), the “termination of FK1012-induced signaling” value was “FK1012-induced signaling can be terminated”. Besides, in [8] (in words), the “toxicity of monomeric ligand” value is given as “nontoxic”.
As to FK1012, in data set [9], the inhibition of signaling entry is reported as “does not inhibit signaling pathways; also recorded: do not inhibit calcineurin-mediated TCR signaling”. The induction of apoptosis result in data set [10] was “FK1012-dependent apoptosis”. Besides, in data set [11], the “potency of mutated construct as inducer of FK1012-dependent apoptosis” value is “equally potent”. Also, the dissociation constant Kd in [12] (read-out: Kd (1)) is 100 pM; in [12] (read-out: Kd (2)), 800 pM. For the same compound, the concentration giving a half-maximal response (EC50) in data set [5] (Jurkat T cells expressing MZF3E, read-out: EC50, secretion of alkaline phosphatase (SEAP)) is 50000 pM. The “induction of cell death / apoptosis” value in data set [13] is reported as “FK1012-dependent apoptosis; also recorded: cell death of the Jurkat T-cell line”. Besides, in data set [8] (FK1012s: up to 0.1 mM in cell culture), the toxicity entry is on record as “nor toxic (up to 0.1 mM in cell culture)”.

The term Kd denotes the free concentration of one partner at which half of the binding sites on the other are occupied at equilibrium, for simple one-to-one binding. As a reminder, the EC50 is the midpoint of the concentration-response curve.
